Here are results for 20 compounds from US3991187A, “Medicinal compositions and methods of use involving phosphoric acid esters” (Aktiebolaget Leo, priority 1971, dated 1976).

Assay [1] deals with prostaglandins E1, E2 F1α and F2α. The experiment in a line: PG-inhibitory effect on the isolated gerbil colon. In kind it is cell-based, Gerbils (Meriones unguiculatus). The settings on record: gerbil colon. How it is done:
The PG-inhibitory effect of esters of the present invention on the gerbil colon are determined using the general technique described by Eakins, Miller & Karim (J. Pharm. Exp. Ther. 176:441, 1971). Gerbils (Meriones unguiculatus) of own breed, both sexes, weighing 50-80 g are used. The animal is stunned, colon ascendens immediately removed, and a 2-3 cm piece mounted in a 6 ml bath containing a modified de Jalon solution at 28° C and continuously oxygenated. Contractions of the organ are registered either isotonically or isometrically. When testing the inhibitory effect of a compound this is added to the bath 2 min before the addition of prostaglandin. […] Several concentrations of each antagonist are used.

The test system of assay [2] is Slow Reacting Substance (SRS). Nature of the assay: antagonism to Slow Reacting Substance on the isolated guinea-pig ileum (Mathe & Strandberg). It counts as cell-based. How it is done: The antagonism to Slow Reacting Substance (SRS) is determined on the isolated guinea-pig ileum as described by Mathe & Strandberg (Acta physiol. scand. 82:460, 1971). Purified SRS is obtained from cat paws perfused with compound 48/80 (Strandberg & Uvnas: Acta physiol. scand. 82:358, 1971). Sodium bis(4-(3-oxo-3-(2,4,6-trihydroxyphenyl)propyl)phenyl) phosphate was tested in this system in several concentrations.

The subject of another assay is PGE1. The experiment in a line: prostaglandin-stimulated glycolysis of the prepubertal ovary (lactic acid production). It counts as cell-based, rats. The following applies: compared with the compound giving 50% reduction at 50-100 μg/ml. How it is done: The action of esters of the present invention on the prostaglandin-stimulated glycolysis of the prepubertal ovary is investigated. The method used has been described in detail by Perklev & Ahren (Life Sciences Part I, 10:1387, 1971). In these experiments ovaries from prepubertal rats are removed and placed in Erlenmeyer flasks containing compounds of this invention dissolved in Krebs biocarbonate buffer. After that the ovaries have been preincubated during 60 min. at 37° C in this medium, they are blotted on filter paper and then washed for 2 min. in plain buffer. The ovaries are then transferred to a new incubation medium containing prostaglandins (PG) dissolved in Krebs bicarbonate buffer and incubated at 37° C for 2 hrs with continuous shaking. The ovarian glycolysis is then determined by measuring the concentration of lactic acid in the incubation medium. When polyphloretin phosphate (PPP) is present in the preincubation medium in a concentration of 500 μg/ml, the subsequent ovarian lactic acid production produced by PGE1 is reduced to about 50% of that obtained with ovaries preincubated in plain buffer. When sodium bis(4-(3-(2,4,6-trihydroxyphenyl)propyl)phenyl)phosphate is investigated in the same experimental system, a 50% reduction of the lactate production is seen when only 50-100 μg/ml of the compound is present in the preincubation medium.

For the compound `O=C(CCc1cccc(OP(=O)(O)Oc2cccc(CCC(=O)c3ccc(OP(=O)(O)O)cc3)c2)c1)c1ccc(OP(=O)(O)O)cc1` [bis(dihydrogen phosphate) of bis(3-(3-(4-hydroxyphenyl)-3-oxopropyl)phenyl hydrogen phosphate], the “selective inhibitory effects compared with PPP” value (from here on “selective inhibitory effects”) in assay [1] is “equal to or superior to that of PPP”. Moreover, the “inhibition of SRS” value in assay [2] was “inhibit SRS”. The “prostaglandin inhibiting activity” value with PGE1 is on record as “same order”. For `O=C(C=Cc1ccc(O)cc1)c1c(O)cc(OP(=O)([O-])Oc2cc(O)c(C(=O)C=Cc3ccc(O)cc3)c(O)c2)cc1O.[Na+]` [sodium bis(3,5-dihydroxy-4-(3-(4-hydroxyphenyl)-acryloyl)phenyl) phosphate], the “inhibition of SRS” value in assay [2] is “inhibit SRS”. The “prostaglandin inhibiting activity” value with PGE1 was “same order”. As to `O=C(CCc1cccc(OP(=O)([O-])Oc2cccc(CCC(=O)c3c(O)cc(O)cc3O)c2)c1)c1c(O)cc(O)cc1O.[Na+]` [sodium bis(3-(3-(2,4,6-trihydroxyphenyl)-3-oxopropyl)phenyl) phosphate], the “selective inhibitory effects” value in assay [1] was “equal to or superior to that of PPP”. Moreover, the “inhibition of SRS” value in assay [2] is listed as “inhibit SRS”. In addition, in the assay on PGE1, the “prostaglandin inhibiting activity” value is listed as “same order”. Regarding `O=C(CCc1cccc(OP(=O)([O-])Oc2cccc(CCC(=O)c3ccc(O)cc3O)c2)c1)c1ccc(O)cc1O.[Na+]` [sodium bis(3-(3-(2,4-dihydroxyphenyl)-3-oxopropyl)phenyl) phosphate], the “selective inhibitory effects” value in assay [1] is listed as “equal to or superior to that of PPP”. Also, the “inhibition of SRS” value in assay [2] was “inhibit SRS”. Also, the “prostaglandin inhibiting activity” value in the assay on PGE1 is recorded as “same order”. For `Nc1ccccc1C(=O)CCc1cccc(OP(=O)([O-])Oc2cccc(CCC(=O)c3ccccc3N)c2)c1.[Na+]` [sodium bis(3-(3-(2-aminophenyl)-3-oxopropyl)phenyl) phosphate], the “selective inhibitory effects” value in assay [1] was “equal to or superior to that of PPP”. `O=C(CCc1cccc(OP(=O)([O-])Oc2cccc(CCC(=O)c3ccccc3O)c2)c1)c1ccccc1O.[Na+]` [sodium bis(3-(3-(2-hydroxyphenyl)-3-oxopropyl)phenyl) phosphate]: in assay [1], the “selective inhibitory effects” value is “equal to or superior to that of PPP”. Further, the “inhibition of SRS” value in assay [2] was “inhibit SRS”. With `COc1ccc(CCC(=O)c2cccc(OP(=O)([O-])Oc3cccc(C(=O)CCc4ccc(OC)c(CN(C)C)c4)c3)c2)cc1CN(C)C.[Na+]` [sodium bis(3-(3-(3-dimethylaminomethyl-4-methoxyphenyl)propionyl)phenyl) phosphate], the “selective inhibitory effects” value in assay [1] is recorded as “equal to or superior to that of PPP”. The same measure, in the same setting: with `CN(C)C(=O)Cc1ccc(C(=O)CCc2cccc(OP(=O)([O-])Oc3cccc(CCC(=O)c4ccc(CC(=O)N(C)C)cc4)c3)c2)cc1.[Na+]` [sodium bis(3-(3-(4-(N,N-dimethylcarbamoylmethyl)phenyl)-3-oxopropyl)phenyl)phosphate] the entry was “equal to or superior to that of PPP”.

On to `CCN(CC)c1ccc(CCC(=O)c2cccc(OP(=O)([O-])Oc3cccc(C(=O)CCc4ccc(N(CC)CC)cc4)c3)c2)cc1.[Na+]` [sodium bis(3-(3-(4-diethylaminophenyl)propionyl)phenyl) phosphate], for which the “selective inhibitory effects” value in assay [1] is listed as “equal to or superior to that of PPP”. As to `COc1cc(CCC(=O)c2cccc(OP(=O)([O-])Oc3cccc(C(=O)CCc4ccc(O)c(OC)c4)c3)c2)ccc1O.[Na+]` [sodium bis(3-(3-(4-hydroxy-3-methoxyphenyl)propionyl)phenyl) phosphate], the “selective inhibitory effects” value in assay [1] is reported as “equal to or superior to that of PPP”. Also, the “inhibition of SRS” value in assay [2] is “inhibit SRS”. Turning to `O=C(CCc1cccc(OP(=O)(O)Oc2cccc(CCC(=O)c3ccc(O)cc3)c2)c1)c1ccc(O)cc1` [sodium bis(3-(3-(4-hydroxyphenyl-3-oxopropyl)phenyl) phosphate], the “selective inhibitory effects” value in assay [1] is “equal to or superior to that of PPP”. Besides, in assay [2], the “inhibition of SRS” value is recorded as “inhibit SRS”. Moreover, in the assay with PGE1, the “prostaglandin inhibiting activity” value is listed as “same order”.

As for `COC(=O)Cc1ccc(C(=O)CCc2cccc(OP(=O)([O-])Oc3cccc(CCC(=O)c4ccc(CC(=O)OC)cc4)c3)c2)cc1.[Na+]` [sodium bis(3-(3-(4-methoxycarbonylmethylphenyl)-3-oxo-propyl)phenyl) phosphate], in assay [1], the “selective inhibitory effects” value is listed as “equal to or superior to that of PPP”. Still for that read-out and setting: with `Nc1ccccc1C(=O)CCc1ccc(OP(=O)([O-])Oc2ccc(CCC(=O)c3ccccc3N)cc2)cc1.[Na+]` [sodium bis(4-(3-(2-aminophenyl)-3-oxopropyl)phenyl) phosphate] the entry was “equal to or superior to that of PPP”.

As to `Cc1cc(OP(=O)([O-])Oc2ccc(CCC(=O)c3ccccc3O)c(C)c2)ccc1CCC(=O)c1ccccc1O.[Na+]` [sodium bis(4-(3-(2-hydroxyphenyl)-3-oxopropyl)-3-methylphenyl) phosphate], the “selective inhibitory effects” value in assay [1] is on record as “equal to or superior to that of PPP”. For the same compound, the “inhibition of SRS” value in assay [2] is reported as “inhibit SRS”.

On to `O=C(CCc1ccc(OP(=O)([O-])Oc2ccc(CCC(=O)c3ccccc3O)cc2)cc1)c1ccccc1O.[Na+]` [sodium bis(4-(3-(2-hydroxyphenyl)-3-oxopropyl)phenyl)phosphate], for which the “selective inhibitory effects” value in assay [1] is listed as “equal to or superior to that of PPP”. Besides, the “inhibition of SRS” value in assay [2] was “inhibit SRS”. Take `Nc1ccc(C(=O)CCc2ccc(OP(=O)(O)Oc3ccc(CCC(=O)c4ccc(N)cc4)cc3)cc2)cc1` [sodium bis(4-(3-(4-aminophenyl)-3-oxopropy)phenyl) phosphate]: the “selective inhibitory effects” value in assay [1] is given as “equal to or superior to that of PPP”. The same measure, in the same setting: with `COc1cc(OP(=O)([O-])Oc2ccc(C(=O)CCc3ccc(N)cc3)c(OC)c2)ccc1C(=O)CCc1ccc(N)cc1.[Na+]` [sodium bis(4-(3-(4-aminophenyl)propionyl)-3-methoxyphenyl) phosphate] the entry was “equal to or superior to that of PPP”; with `CCN(CC)c1ccc(C=C(C(=O)c2ccc(OP(=O)([O-])Oc3ccc(C(=O)C(=Cc4ccc(N(CC)CC)cc4)c4ccc(C)cc4)c(OC)c3)cc2OC)c2ccc(C)cc2)cc1.[Na+]` [sodium bis(4-(3-(4-diethylaminophenyl)-2-(4-methylphenyl)acryloyl)-3-methoxyphenyl) phosphate], “equal to or superior to that of PPP”; with `CCN(CC)c1ccc(CCC(=O)c2cc(C)c(OP(=O)([O-])Oc3c(C)cc(C(=O)CCc4ccc(N(CC)CC)cc4)cc3C)c(C)c2)cc1.[Na+]` [sodium bis(4-(3-(4-diethylaminophenyl)propionyl)-2,6-dimethylphenyl) phosphate], “equal to or superior to that of PPP”. On the same count and under the same terms, with `Nc1cccc(C(=O)CCc2ccc(OP(=O)(O)Oc3ccc(CCC(=O)c4cccc(N)c4)cc3)cc2)c1` [sodium bis(4-(3-aminophenyl)-3-oxypropyl)phenyl) phosphate] the entry was “equal to or superior to that of PPP”.
